The numbers were not newly measured in US20120093797A1, “COMBINED USE OF CREATINE PHOSPHATE AND CREATINE PHOSPHOKINASE FOR TREATMENT OF ARTERIOSCLEROSIS” (ARTCELL INVEST LTD., priority 2009, published 2012), which cites them from elsewhere.

Turning to `CN(CC(=O)O)C(=N)NP(=O)(O)O` [CP, 2-[(amino-phosphonoimino-methyl)-methyl-amino]acetic acid], the “Half-life of CP” value was 4 to 7 min.
